The text below walks through data of patent publication US20130274834A1, “Method for the treatment of skin tissues” (priority 2006, published 2013).

Several values for one entry are separate records, joined by “and”; a condition that tells them apart may be missing. Identical values can stand only once. Entries after “also recorded” stand apart in the source; their conditions may differ.

Type in all cases: in vivo, human
In one data set the test system is cystic acne lesions. Kind of data set: Split face or split back pre-PDT radiant IR study, eleven cystic acne patients (Example 7). The note with it: one month after PDT; IR 970 nm 50 mW/cm2 15 min prior to 5-ALA; most patients. On the procedure: Study Design/Materials and Methods: Eleven (11) patients were enrolled in a split face or split back (pre-treated side versus control) study with a pre-approved IRB protocol. […] Lesion count was assessed both manually and by digital photography before and 4 weeks after one PDT procedure. Prior to the application of 5-ALA, one side of the face or back was pre-treated with radiant IR [CW LEDs emitting @ λ970 nm, irradiance 50 mW/cm2 for 15 minutes, total fluence 45 J/cm2], while the other half was used as control. PDT was then performed on the entire surface (face or back).

Data set [1] relates to facial papulo-pustular inflammatory acne lesions. Kind of data set: Split-face radiant IR skin preparation prior to PDT for inflammatory type acne of the face (Example 6). The settings on record: untreated side (no IR); one month later. On the procedure:
A person was treated for facial papulo-pustular inflammatory acne lesions. After performing an acetone scrub on the treatment area, a radiant IR skin preparation was done on the right side of their face (970 nm, 80 mW/cm2, for 30 min). Then 5-aminolevulinic acid (Levulan™ Kerastick™) was applied to the skin and left for 90 min incubation time. […] Radiant IR skin preparation allows for a reduction in the number of PDT treatments necessary for significant clinical improvements.

Data set [2] concerns inflammatory acne lesions. Kind of data set: Randomized, controlled, rater-blinded split face/back trial of IR pre-treatment plus ALA-PDT in inflammatory acne (Example 9). Also on record: key to Clinical Global Severity Assessment at Week-4, Median: 0: Clear; 1: Almost clear; 2: Mild; 3: Moderate; 4: Severe; 5: Very Severe. The note with it: for Clinical Global Severity Assessment at Week-4, Median: six-point rating scale, grade 0-5; for Change from Baseline in Lesion Counts, Total Inflammatory lesions, Median (reduction): week-4 (one month after PDT). On the procedure:
One side was pre-treated for 15 minutes with radiant IR light emitting diode (LED) (970 nm), while the other side was used as control. ALA was then applied after which PDT LED (630 nm) was performed on the entire face or back surface. Blinded lesion counts and clinical global assessment of severity were performed based on digital photographs before and four weeks after the PDT procedure.
Inclusion criteria included patients with skin type I to III according to the Fitzpatrick Classification System [^xxviii]. Exclusion criteria comprised patients taking cortisone (Prednisone), anticoagulant therapy, or any drug known to increase photosensitivity. In addition, during the 12 months preceding the study, patients were required not to have used isotretinoin (Accutane), or applied topical steroids on the site to be treated. Moreover, oral antibiotics use, laser or topical anti-acne medication at the to-be-treated site were not permitted for eight weeks prior to the study. Patients gave written informed consent to participate in this trial in compliance with the US Code of Federal Regulations dealing with the conduct of clinical studies (21 CFR including parts 50 and 56 concerning informed consent and IRB regulations). The study was conducted according to Good Clinical Practice Guidelines and the principles of the Declaration of Helsinki, and was approved by the Institutional Review Board Services (Div. 1373737 Toronto, Canada).
Patients were assigned to a split face or split back group to allow for within-patient assessments of clinical effects. Assignment was based on the patient's problem area. One side was randomly (using a coin flip) assigned to receive IR pre-treatment and ALA-PDT, and the other ALA-PDT alone to serve as control. The IR pre-treatment consisted of a 15 minute exposure to radiant IR LED at 970 nm ([…] using the LumiPhase-R/IR™, OPUSMED Inc. Montreal, Canada) to reach peak H2O absorption inside-out temperature of 45° C. Papillary dermis temperature was monitored with a needle probe throughout the session and up to 40 minutes (Type-T thermocouple, Omega, Montreal, Canada). ALA (20% Levulan Kerastick, DUSA Pharmaceuticals, USA) was then applied on both sides for 60 minutes, after which PDT with LED at 630 nm (50 mW/cm^2, 70 J/cm^2) was performed on the entire face or back surface for a duration of 23 minutes (LumiPhase-R/B™, OPUSMED Inc. Montreal, Canada). No cooling method was used. Digital photographs (Canon Dual Flash EOS 10D, Canon, Tokyo, Japan with EX SIGMA 50 mm 1:2.8 macro lens, Sigma, Aizu, Japan) were taken prior to and four weeks after the procedure. Each photograph was taken maintaining identical ambient lighting, pose and camera angles.
Acne lesion counts were performed before and four weeks after the PDT treatment. All types of inflammatory (papules, pustules, nodules) and noninflammatory (open and closed comedones) acne lesions were counted. Lesion counts were performed based on the digital photographs by two non-treating physicians who were blinded to the treatment regimen (IR-treated or control side) and to the timing of the photographs (baseline or post-treatment).
The global severity of acne was assessed at the end of the study by the […] non-treating physicians, as described above, using a six-point rating scale (Table 1). Clinical success was defined by grades 0 (clear) or 1 (almost clear).
Adverse reactions were monitored throughout the study. Signs of erythema, oedema, scaling/crusting, bronzing, textural changes, hyperpigmentation, and hypopigmentation were documented during the time period of the clinical trial.
Cronbach's alpha was calculated to assess inter-rater reliability in assessments. Reliability was deemed acceptable if Cronbach alpha was ≧7 allowing raters' assessments to be combined for analysis. The primary outcome variable was the percent change from baseline in inflammatory lesion count measured four weeks post-treatment. […]

Take `NCC(=O)CCC(=O)O` [5-aminolevulinic acid]: the “number of cystic lesions, pre-treated versus control side” value in the data set with cystic acne lesions is “statistically significant decrease”. Moreover, in data set [1], the “PDT sessions needed for similar results” value is listed as “needed an additional PDT session”. Moreover, in data set [2] (ALA-PDT with LED 630 nm, with or without IR pre-treatment, listed as ALA), the “tolerability of the treatment” value is recorded as “overall well tolerated; also recorded: well tolerated with no significant adverse events”. Besides, the treatment-related adverse effects result in data set [2] (ALA-PDT with or without IR pre-treatment) is listed as “No unusual treatment-related adverse effects were observed”. The “Clinical Global Severity Assessment at Week-4, Median” value was 2 in data set [2] (Control side (ALA-PDT alone)) and 1 in data set [2] (IR-Treated side). In addition, the “Change from Baseline in Lesion Counts, Total Inflammatory lesions, Median (reduction)” value in data set [2] (Control side (ALA-PDT alone), listed as ALA) was 38% and 37.86%; in data set [2] (IR-Treated side, listed as ALA), 73% and 73.21%. Besides, the “additional benefit of IR-treated side in reduction of inflammatory lesion count” value in data set [2] (IR-treated versus control side, week-4) came to 35%. Moreover, in data set [2] (most patients), the “time to disappearance of slight erythema post-PDT” value was not above 48 h.
